Assay results published in US20260327211A1, “MODULATORS OF A POTASSIUM CHANNEL AND OF TRPV1 CHANNEL AND USES THEREOF” (Bsense Bio Therapeutics Ltd., priority 2023, published 2026).
Several values for one entry are separate records, joined by “and”; a condition that tells them apart may be missing. Identical values can stand only once.

Experiments:
[1] = Metabolite identification (Met-ID), human hepatocytes; format: in vitro ADME; conditions: human hepatocytes
Experimental: Cell culture and incubation: Cryopreserved hepatocyte cells, from human and rat sources, were purchased from commercial sources or in-house production, and were cultured in Williams' Medium E supplemented with glutamine and HEPES, in a humidified 5% CO2 incubator at 37° C., to a cell density of […]. Then, solutions of test compounds at a concentration of 10 μM, or 7-Ethoxycoumarin, as a positive control, at a concentration of 30 μM, in Eagle's Minimum Essential Medium, Catalog No. 30-2003 (ATCC) supplemented with 20% fetal bovine serum, were introduced and the mixture was incubated for 120 minutes, or other specified time points.
The samples were analyzed for metabolites using an LC-MS method developed on […] and PDA systems. Comparative analyses of mass spectra and ion fragmentation between the parent compound and its metabolites were carried out, and metabolic profiling was determined using the mass spectrometric and/or PDA (UV) response. Hypothetical structures of metabolites and their metabolic pathways were proposed.

[2] = Bidirectional permeability in Caco-2 cells; format: in vitro ADME, human; conditions: human, Caco-2, pH 7.4, 2.00 μM
Experimental: Cell culture: Caco-2 cells (ATCC) were seeded onto polycarbonate (PC) membranes in 96-well insert plates. The cells were cultured in media for 21-28 days prior to performing the transport assays.
Validation of monolayer integrity: Once the Caco-2 cells formed a confluent monolayer, their integrity was evaluated using a Lucifer yellow rejection assay. The monolayer integrity was further evaluated by measuring, in duplicate wells, the unidirectional (A→B) permeability of nadolol (a low permeability marker) and metoprolol (a high permeability marker), as well as bidirectional permeability of digoxin (a P-glycoprotein substrate marker).
Assay: The compounds were assayed under bidirectional transport conditions (A→B and B→A) at a concentration of 2.00 μM (with DMSO≤1.0%), using a transport buffer composed of HBSS containing 10.0 mM HEPES, pH 7.40±0.05. The incubation was carried out at 37° C., with 5.0% CO2 and relatively saturated humidity for 2 hours.
The dosing solution was spiked and mixed with the transport buffer and a Stop Solution (containing an internal standard (IS)) to create a T0 sample.
Sample analysis: Following the incubation, all of the samples were analyzed using LC-MS/MS. The concentrations of the test compounds were expressed as peak area ratios of the analytes versus the IS.

[3] = Human liver microsome metabolic stability; format: in vitro ADME; conditions: for half-life at 1 µM: human, liver microsomes, human liver microsomes, read-out: HLM T1/2
Description: Liver microsomes which are subcellular particles derived from endoplasmic reticulum of hepatic cells were used for evaluating the tested compounds. These particles are rich in drug metabolizing enzymes, including the cytochrome p-450 family. Liver microsomes are a recommended test system for various in vitro drug metabolism and pharmacokinetics (DMPK) studies. CLint values lower than […] are considered suitable for drug development.
Liver Microsome Metabolic Stability Assay (NADPH): The liver microsome stability assay was evaluated through pre-incubation with HLMs. A liver microsome mixture (pooled from multiple donors) at a concentration of 0.5 mg/mL, and the test compound at a concentration of 1 μM, were warmed in the presence of a NADPH regenerating system (about 1.0 mM) at 37° C. Positive controls, including testosterone (a CYP3A4 substrate), propafenone (a CYP2D6 substrate), and diclofenac (a CYP2C9) substrate, were concurrently incubated with the HLMs, in the presence of the NADPH regenerating system (1.0 mM). Samples were extracted during incubation at multiple intervals: 0, 5, 15, 30, 45 and 60 minutes. To terminate the reactions, the samples were promptly mixed with cooled acetonitrile that included an internal standard (IS). An additional compound was incubated with the HLMs in the absence of the NADPH regeneration system, from which a sample was taken at the 60-minute interval.
The clearance of the test compound in the samples was subsequently analyzed by LC-MS/MS based on the peak area ratios of the analyte to the IS.
The following equation was used to calculate the microsome clearance: […]
Liver weight: 40 grams/kg, 30 grams/kg, 32 grams/kg, 20 grams/kg and 88 grams/kg, for rat, monkey, dog, human and mouse, respectively.

[4] = Log D, 1-octanol/buffer shake flask; format: physicochemical; conditions: 1-octanol/phosphate buffer, pH 7.4; read-out: LogD
Experimental: The Log D assay was a miniaturized 1-octanol/buffer shake flask method followed by LC/MS/MS analysis, as follows.
The test compounds or control compounds Nadolol, Chlorpromazine Hydrochloride and Propranolol Hydrochloride were dissolved in 100% DMSO to obtain 10 mM solutions, which were transferred to 96-well polypropylene cluster tubes; 2 μL/well. 1-octanol saturated with 0.1 M phosphate buffer (149 μL/well) and 0.1 M phosphate buffer saturated with 1-octanol (149 μL/well) were added to the tubes, respectively, and each tube was vigorously mixed for 2 minutes and then shaked at a speed of 800 rpm at room temperature for 1 hour, followed by centrifugation at 4000 rpm for 5 minutes at room temperature. Thereafter, for the test compounds and the Chlorpromazine Hydrochloride and Propranolol Hydrochloride, the sample of the buffer layer was diluted by a factor of 50-fold and the sample of 1-octanol layer was diluted by a factor of 2000-fold with internal standard (IS) solution. For Nadolol, the sample of the buffer layer was diluted by a factor of 1000-fold and the sample of 1-octanol layer was diluted by a factor of 400-fold with internal standard (IS) solution. The samples were analyzed using a triple quadrupole mass spectrometer. Peak areas were corrected by dilution factors and embedded internal standard, and the ratio of the corrected peak areas was used to calculate the Log D value. The Log D value for each compound will be calculated by the following equation: […]

hTRPV1 = target: T1, hTRPV1 (Homo sapiens, UniProt Q8NER1); assay: hTRPV1 dual activity electrophysiology, CHO cells co-expressing hKv7.2/3 and hTRPV1; format: cell-based; conditions: Dual hTRPV1 / Dual Expressing CHO, CAP IC50, Kv7.2/3 co-expressed and activated, capsaicin
T1 construct: CDS of NM_080704.4, inserted into the multiple cloning site of pcDNA3.1(+); host or cells: CHO/hKv7.2/3
Experimental: Cell culture and DNA transfection: CHO/hKv7.2/3 cells were transfected with hTRPV1 DNA constructs (CDS of NM_080704.4, inserted into the multiple cloning site of pcDNA3.1(+) between the Hind III and BamH I restriction site, Genscript). For CHO transfection, 1×10^6 cells were suspended in a reaction mix (Amaxa™ 4D-Nucleofector™-LONZA) containing 5 μg of hTRPV1 DNA and 0.5 μg of GFP DNA (for cells selection) in a cuvette.
The cells were transformed (Amaxa, DT-133 program for CHO transfection with p-3 Kit) and recovered for 10 minutes at RT in the hood. Then cells were re-suspended in a 10 mL antibiotic (Ab)-free medium suspension and were plated on Gelatin or PLL-coated cover glass in different cell densities. On the next morning, the medium was changed to full medium containing the CHO/hKv7.2/3 cell line selection antibiotics.
Extracellular (Bath) solution: The solution was composed of (in mM): NaCl, 140; KCl, 4; CaCl2, 1.8; MgCl2, 1.2; Glucose, 11; HEPES, 5.5. pH was adjusted to 7.3 with NaOH. Osmolarity was adjusted to 310 mOsm with Sucrose.
Intracellular (Pipette) solution: Pipettes were pulled from borosilicate glass (Warner Instrument Corp, USA) with a resistance of 3-7 MΩ and were filled with internal solution composed of (in mM): KCl, 130; MgCl2, 1; K ATP, 5; EGTA, 5; HEPES, 10. pH was adjusted to 7.3 with KOH. Osmolarity was adjusted to 290 mOsm with Sucrose.
A programmable valve-linked pressurized perfusion system was used for local application of compounds nearby the cell recorded in a consistent flow rate of 2-3 mL/minute. Series resistance was corrected and data were sampled at 5 kHz and low pass filtered at 2.4 kHz using MultiClamp 700B amplifier with pCLAMP11 software (Molecular Devices, USA).
At least 48 hours following cell transfection and plating, cells were recorded to assess the TRPV1 dual activity. Membrane potential was held at −90 mV. To measure the inhibitory effects of the tested compounds on hTRPV1 dual activity the following protocol was performed:
Cells were perfused with vehicle-only containing bath solution. After 30 seconds, a single −40 mV 1.5 second step was applied for Kv7.2/3 activation and 30 seconds later capsaicin (1 μM) was applied for 6 seconds to activate the TRPV1.
Cells perfusion was changed to a compound-containing bath solution, and after 2 minutes and 30 seconds of compound application, a single −40 mV 1.5 second step was applied for Kv7.2/3 activation and 30 seconds later capsaicin (1 μM) was applied for 6 seconds to activate the TRPV1.
Cells perfusion was thereafter changed back to vehicle only-containing bath solution. After 30 seconds, a single −40 mV 1.5 step was applied for Kv7.2/3 activation and 30 seconds later capsaicin (1 μM) was applied for 6 seconds to activate the TRPV1 followed by a capsaicin wash out.
The drug current response, when capsaicin was injected following 3 minutes of pre-incubation with the test compound, was divided by the averaged control currents, induced without compound, before compound incubation and following its washout, to evaluate the drug/control response.

In vitro micronucleus = format: cell-based; conditions: hamster, cho-k1 cells
Experimental: (§1) The micronucleus assay was performed according to the regulatory guidelines. In brief, CHO-K1 cells were plated at 10000 cells/well in 3 plates and incubated In CHO-K1 growth medium (containing F12K, 10% FBS and 1% PS) overnight.
(§2) As a control for the S9 treatment, plate No. 1, cells were treated with cyclophosphamide as a positive control, for 3 hours. For plate No. 2, without S9 treatment, cells were treated with mitomycin C as a positive control, compounds for 3 hours, and for plate No. 3, without S9 treatment, cells were treated with bleomycin sulfate as a positive control continuously for 24 hours.
(§3) On the following day, 6 μg/mL of cytochalasin B were added to each well and plates were further incubated overnight. In the day after medium was replaced with a combined 10 μg/mL Hoechst dye solution and 0.5 μM calcein-AM in 100 μL warm DPBS for 30 minutes and the plates were scanned using CQ1 high-content analysis system.

CHO-K1 cells = assay: In vitro micronucleus; format: cell-based; conditions: hamster
Experimental: as §1, §2, §3

[5] = test system: Spared Nerve Injury (SNI) rats; assay: Spared Nerve Injury (SNI) model, von Frey; format: in vivo, rat; conditions: rat, in vivo
Experimental: All animal experiments were carried out according to the Guide for the Care and Use of Laboratory Animals (2011 edition) and approved by the Israel National Institutional Animal Care and Use Committee (IACUC). Young adult male SD rats (Envigo RMS, Israel), were used for in vivo efficacy: Spared Nerve Injury (SNI), Distal Tibial Injury (DTI) and Post-operative Pain (POP), 200-220 grams, Chronic Post-Ischemia Pain (CPIP) 275-325 grams, Monosodium iodoacetate-induced osteoarthritis (MIA-OA) 180-220 grams; for in vivo safety: 200-250 grams at study initiation. […] The health status of the animals used in this study was examined upon their arrival. Only animals in good health were acclimatized to laboratory conditions and were used in the studies. All studies were performed following at least five days of animal acclimation. During acclimation and throughout the entire study duration, animals were housed within a limited-access rodent facility and kept in groups with a maximum of 2-3 rats per polypropylene cage. The cages were fitted with solid bottoms and filled with sterile wood shavings as bedding material. Animals were provided ad libitum with a commercial, sterile rodent diet and had free access to drinking water that was supplied to each cage via polyethylene bottles with stainless steel sipper tubes. A feed lot analysis of the diet batch used in the study was included in the archives with the study data. Water was monitored periodically. Plastic cylinders for playing and hiding and wooden balls or sticks were added to the cages for environmental enrichment.
SNI: The SNI procedure consisted of ligating and dissecting the tibial and common peroneal nerves, thus sparing the sural nerve. Prior to surgery, a dose of 0.03 mg/kg buprenorphine (Temgesic®) was administered to animals as a prophylaxis to alleviate the operative and postoperative pain unrelated to neuropathy. Next, animals were anesthetized with a combination of medetomidine/ketamine sodium IP. While under anesthesia a medio caudal incision of 4-5 mm parallel to the left femur was cut on shaved and disinfected skin. The sciatic nerve was exposed from underneath the muscle layer and isolated gently from the surrounding connective tissue, using curved and blunt forceps. The tibial and common peroneal nerves were first tightly ligated with double knot of 6-0 silk suture, proximally and immediately distal to the sciatic bifurcation. Thereafter, the nerves which run as a pair as physically attached to each other were cut at sites close to the ligatures, thereby removing a length of approximately 0.5 mm of the nerves, necessary to avoid the formation of any re-connection to the nerves. This procedure led to complete denervation of areas of tibial and peroneal innervation in the plantar paw, while neuropathy was developed upon the sural territories. Special care was taken not to manipulate the sural nerve, which thus was left intact. The muscle layers and skin were sutured, and animals were allowed to recover. 0.03 mg/kg buprenorphine SC was administered on postoperative days 1-2, every 12 hours, starting from the evening of Day 0. Rehydration with 4 ml of sterile saline IP was provided directly after the surgery, continuing twice a day for 7 days. The sural nerve innervates the lateral longitudinal third of the plantar paw and therefore, mechanical sensitivity was assessed in this area.
The selection of animals was performed on day 13 post-operation before animals were placed in their experimental groups. Animals with a pain threshold of <4 grams for an operated leg following Von Frey testing were included in the study. To form homogenous treatment groups, all the selected animals were grouped using a random sampling method on study day 13, to form groups with similar pain threshold mean. For blinding purposes, the researcher who dosed the animals with test items was different than the researcher who conducted the VF tests. […]

T1 sequence (Q8NER1 whole entry): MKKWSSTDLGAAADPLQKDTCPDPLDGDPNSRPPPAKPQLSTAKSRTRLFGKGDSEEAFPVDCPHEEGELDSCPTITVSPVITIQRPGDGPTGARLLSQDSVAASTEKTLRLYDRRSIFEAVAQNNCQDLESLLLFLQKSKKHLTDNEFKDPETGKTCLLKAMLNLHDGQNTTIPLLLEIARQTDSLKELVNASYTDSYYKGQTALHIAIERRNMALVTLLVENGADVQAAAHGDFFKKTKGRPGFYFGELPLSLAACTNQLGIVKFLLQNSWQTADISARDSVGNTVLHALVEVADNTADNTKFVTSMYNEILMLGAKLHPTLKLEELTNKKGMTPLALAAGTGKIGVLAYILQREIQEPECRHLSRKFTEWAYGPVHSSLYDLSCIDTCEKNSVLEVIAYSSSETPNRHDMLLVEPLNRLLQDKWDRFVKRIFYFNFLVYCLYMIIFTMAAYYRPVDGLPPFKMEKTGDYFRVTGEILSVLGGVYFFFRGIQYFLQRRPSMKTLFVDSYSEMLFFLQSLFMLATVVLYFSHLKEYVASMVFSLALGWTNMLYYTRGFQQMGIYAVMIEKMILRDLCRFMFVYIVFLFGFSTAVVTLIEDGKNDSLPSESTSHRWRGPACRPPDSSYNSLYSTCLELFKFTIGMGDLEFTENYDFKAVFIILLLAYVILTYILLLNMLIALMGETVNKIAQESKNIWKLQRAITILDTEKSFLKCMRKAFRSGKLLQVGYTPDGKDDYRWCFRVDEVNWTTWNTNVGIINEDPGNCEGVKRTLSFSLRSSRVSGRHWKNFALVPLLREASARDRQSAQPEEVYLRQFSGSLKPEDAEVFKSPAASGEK

SMILES | Human Hepatocytes MetID (glutathione conjugation) [1] | efflux ratio at 2 h, 2 µM [2] | HLM and/or Rat PK clearance rates compared to compound 661 [3] | half-life at 1 µM [3] [min] | logD [4] | IC50 (hTRPV1) [µM] | CC50 at 3 h (In vitro micronucleus) [µM] | Micronucleus response Absolute MEC (CHO-K1 cells) [µM] | Reversal of PWT [5]
O=C(Cc1cc(-n2cc(Cl)c3cc(Cl)cc(Cl)c32)cnn1)N[C@@H]1COC[C@H]1O [Compound 830] | did not indicate the presence of glutathione conjugation | 84 | improved HLM and/or Rat PK clearance rates compared to compound 661 | 58.1 | 3.2 | – | – | – | –
O=C(Cc1cc(-n2cc(Cl)c3cc(Cl)cc(Cl)c32)ncn1)N[C@@H]1COC[C@H]1O [Compound 840] | did not indicate the presence of glutathione conjugation and None | 5.4 | improved HLM and/or Rat PK clearance rates compared to compound 661 | 52 | 3.63 | 0.479 | – | – | –
O=P1(N(CCCl)CCCl)NCCCO1 (centres unmarked) [Cyclophosphamide, reference compound] | – | – | – | – | – | – | 41.4 | >400 | –
CC(C)C[C@H](CN)CC(=O)O [Pregabalin, reference compound] | – | – | – | – | – | – | – | – | 61% and 50%
